This is an account of results in US20160046618A1, “Cyclopropyl Fused Thiazin-2-Amine Compounds as Beta-Secretase Inhibitors and Methods of Use” (AMGEN INC., priority 2014, published 2016).

For orientation: IC50 means the concentration that gives 50% inhibition.

Read-outs that look alike come from different tables or passages of the source.

Assay [1] concerns the target human recombinant BACE1 (Homo sapiens (Human), UniProt P56817). Nature of the assay: In vitro enzymatic BACE1 FRET assay. Type of assay: biochemical. The settings on record: read-out: IC50 IP (μM) BACE1 enzyme. The method, boiled down:
(§1)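 Ni-NTA-purified recombinant protease incubated with compound; reaction started with 50 nM FRET peptide substrate (fluorophore/quencher flanking the BACE cleavage site) and run 1 h. Stopped with Tris buffer raising pH to neutral; fluorescence read at ex 488/em 590 nm.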

The target in assay [2] is human recombinant BACE2 (Homo sapiens (Human), UniProt Q9Y5Z0). Put plainly: In vitro enzymatic BACE2 FRET assay. It counts as biochemical. The settings on record: read-out: IC50 IP (μM) BACE2 enzyme. The essentials:
as §1

In assay [3] the test system is Aβ40 in conditioned medium of cells stably expressing Amyloid Precursor Protein (APP). Put plainly: In vitro BACE-1 cell-based assay (Aβ40 sandwich ELISA). The settings on record: read-out: IC50 IP (μM) BACE1 cell. The essentials:
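APP-expressing cells treated 24 h at 37 °C with compound in 10-point dose response (top 100 μM or 10 μM, 0.1% DMSO final). Secreted Aβ40 in conditioned medium quantified by sandwich ELISA (pAb40 capture, biotinylated 6E10 detection, time-resolved europium fluorescence); IC50 from percent inhibition versus concentration.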

For assay [4], the target named is Recombinant Cat D (Homo sapiens (Human), UniProt P07339). Nature of the assay: In vitro enzymatic Cathepsin D (Cat D) FRET assay. It counts as biochemical. The method, boiled down:
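Cleavage of a 20 nM fluorophore/quencher peptide by CHO-expressed recombinant Cat D proceeded for one hour at pH 3.5 (0.05 M citrate, 5 mM CHAPS, 10% DMSO final). Tris addition neutralized the pH to end the reaction. Fluorescence was then measured (ex 500 nm/em 580 nm).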

The mark [5] stands for this setting: Cathepsin D FRET enzyme assay, read-out: IC50 IP (μM) CatD.

Chain of human recombinant BACE1 (P56817 46-501): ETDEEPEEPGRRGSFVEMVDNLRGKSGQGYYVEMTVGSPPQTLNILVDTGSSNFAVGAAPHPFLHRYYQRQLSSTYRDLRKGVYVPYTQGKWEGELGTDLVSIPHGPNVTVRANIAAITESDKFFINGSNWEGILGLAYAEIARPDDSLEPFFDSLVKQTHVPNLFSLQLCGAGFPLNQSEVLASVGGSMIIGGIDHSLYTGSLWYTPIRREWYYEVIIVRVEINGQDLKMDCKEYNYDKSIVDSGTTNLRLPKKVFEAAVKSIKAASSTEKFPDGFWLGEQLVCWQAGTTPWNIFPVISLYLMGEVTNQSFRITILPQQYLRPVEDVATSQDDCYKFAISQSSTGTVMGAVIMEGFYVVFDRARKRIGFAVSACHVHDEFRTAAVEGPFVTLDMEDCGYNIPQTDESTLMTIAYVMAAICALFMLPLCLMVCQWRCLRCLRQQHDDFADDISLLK
Chain of Recombinant Cat D (P07339 65-412): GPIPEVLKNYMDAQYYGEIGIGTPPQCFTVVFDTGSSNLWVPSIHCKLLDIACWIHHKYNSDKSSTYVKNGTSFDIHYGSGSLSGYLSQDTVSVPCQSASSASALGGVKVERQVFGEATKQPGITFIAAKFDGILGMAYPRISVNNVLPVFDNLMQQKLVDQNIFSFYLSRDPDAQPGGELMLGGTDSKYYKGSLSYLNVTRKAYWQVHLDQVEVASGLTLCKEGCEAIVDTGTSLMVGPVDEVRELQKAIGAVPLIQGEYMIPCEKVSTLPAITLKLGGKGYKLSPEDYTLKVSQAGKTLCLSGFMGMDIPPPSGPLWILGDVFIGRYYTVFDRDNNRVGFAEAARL
Chain of human recombinant BACE2 (Q9Y5Z0 63-518): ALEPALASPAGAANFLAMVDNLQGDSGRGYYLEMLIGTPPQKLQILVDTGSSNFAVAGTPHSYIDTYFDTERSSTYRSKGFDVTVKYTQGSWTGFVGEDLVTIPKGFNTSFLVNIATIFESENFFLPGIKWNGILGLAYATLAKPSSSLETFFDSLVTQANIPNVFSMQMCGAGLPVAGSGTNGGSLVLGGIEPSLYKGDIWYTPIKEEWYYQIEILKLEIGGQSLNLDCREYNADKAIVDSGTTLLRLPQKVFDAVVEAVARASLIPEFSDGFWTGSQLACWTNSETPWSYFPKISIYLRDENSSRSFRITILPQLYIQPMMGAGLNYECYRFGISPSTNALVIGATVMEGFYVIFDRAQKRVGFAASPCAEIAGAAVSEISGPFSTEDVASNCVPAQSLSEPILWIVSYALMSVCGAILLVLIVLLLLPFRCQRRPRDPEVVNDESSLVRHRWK

Take `C#CCOc1cnc2c(Nc3ccc(F)c([C@@]4(C)N=C(N)S[C@@]5(C(=O)NC6CC6)C[C@H]54)c3)nccc2n1` [Example 794, (1S,5S,6S)-3-amino-N-cyclopropyl-5-(2-fluoro-5-((2-(2-propyn-1-yloxy)pyrido[3,4-b]pyrazin-5-yl)amino)phenyl)-5-methyl-2-thia-4-azabicyclo[4.1.0]hept-3-ene-1-carboxamide]: the IC50 turned out to be 0.846 nM in assay [1], 0.0397 µM in assay [2], 0.0012 µM in assay [3] and 316 µM in assay [4] (read-out: IC50 IP (μM) CatD).
For `NC1=N[C@](CF)(c2cc(NC(=O)c3ccc(Cl)cn3)ccc2F)[C@@H]2C[C@]2(/C=C/CO)S1` [Example 756, N-(3-((1R,5S,6S)-3-amino-5-(fluoromethyl)-1-((E)-3-hydroxyprop-1-en-1-yl)-2-thia-4-azabicyclo[4.1.0]hept-3-en-5-yl)-4-fluorophenyl)-5-chloropicolinamide], the IC50 in assay [1] was 3.73 nM; in assay [2], under 0.00203 µM; in assay [3], 0.00659 µM; in assay [4] (read-out: IC50 IP (μM) CatD), over 400 µM.
Regarding `C[C@@H](O)[C@]12C[C@H]1[C@@](C)(c1cc(Nc3ncnc4cc(C#N)cnc34)cc(F)c1F)N=C(N)S2` [Example 908], the IC50 in assay [1] worked out at 8.01 nM; in assay [2] it was 0.0255 µM; in assay [3] it was 0.00812 µM; in assay [4] (read-out: IC50 IP (μM) CatD), 360 µM.
Regarding `C#CCOc1cnc2c(Nc3ccc(F)c([C@@]4(C)N=C(N)S[C@@]5(C#N)C[C@H]54)c3)ncnc2c1` [Example 928, (1S,5S,6S)-3-amino-5-(2-fluoro-5-((7-(2-propyn-1-yloxy)pyrido[3,2-d]pyrimidin-4-yl)amino)phenyl)-5-methyl-2-thia-4-azabicyclo[4.1.0]hept-3-ene-1-carbonitrile], the IC50 was found to be 1.41 nM in assay [1], 0.0129 µM in assay [2], 0.00723 µM in assay [3] and 439 µM in assay [4] (read-out: IC50 IP (μM) CatD).
`C[C@]1(c2cc(Nc3nccc4nc(OCc5ncco5)cnc34)cnc2F)N=C(N)S[C@@]2(C(F)F)C[C@@H]12` [Example 654, N-(5-((1S,5S,6S)-3-amino-1-(difluoromethyl)-5-methyl-2-thia-4-azabicyclo[4.1.0]hept-3-en-5-yl)-6-fluoro-3-pyridinyl)-2-(1,3-oxazol-2-ylmethoxy)pyrido[3,4-b]pyrazin-5-amine]: the IC50 in assay [1] came to 0.931 nM; in assay [2], 0.0291 µM; in assay [3], 0.00166 µM; in assay [4] (read-out: IC50 IP (μM) CatD), 861 µM.
With `COC[C@H](C)Oc1cnc(C(=O)Nc2ccc(F)c([C@@]3(C)N=C(N)S[C@@]4(C(=O)NC5CC5)C[C@H]43)c2)cn1` [Example 1001, (1S,5S,6S)-3-amino-N-cyclopropyl-5-(2-fluoro-5-(((5-((1S)-2-methoxy-1-methylethoxy)-2-pyrazinyl)carbonyl)amino)phenyl)-5-methyl-2-thia-4-azabicyclo[4.1.0]hept-3-ene-1-carboxamide], the IC50 in assay [1] was 0.059 nM; in assay [2] it was 0.356 µM; in assay [3], 0.00589 µM; in assay [4] (read-out: IC50 IP (μM) CatD), 492 µM.
In the same order, the values of `COC[C@]12C[C@H]1[C@@](C)(c1cc(Nc3nccc4cc(OCC(F)(F)C(F)F)cnc34)cc(F)c1F)N=C(N)S2` [Example 731, N-(3-((1S,5S,6S)-3-amino-1-(methoxymethyl)-5-methyl-2-thia-4-azabicyclo[4.1.0]hept-3-en-5-yl)-4,5-difluorophenyl)-3-(2,2,3,3-tetrafluoropropoxy)-1,7-naphthyridin-8-amine] are 66.8 nM, 3.83 µM, 1.3 µM and 1100 µM.
Consider `Cc1nc(OCC(F)(F)F)cnc1C(=O)Nc1cc(F)c(F)c([C@@]2(C)N=C(N)S[C@@]3(C(F)F)C[C@@H]23)c1` [Example 615, N-(3-((1S,5S,6S)-3-amino-1-(difluoromethyl)-5-methyl-2-thia-4-azabicyclo[4.1.0]hept-3-en-5-yl)-4,5-difluorophenyl)-3-methyl-5-(2,2,2-trifluoroethoxy)-2-pyrazinecarboxamide], for which the IC50 was found to be 2.73 nM in assay [1], 0.117 µM in assay [2], 0.0788 µM in assay [3] and 102 µM in assay [4] (read-out: IC50 IP (μM) CatD).
In the same order, the values of `Cc1nnc(COc2cnc3c(Nc4cc(F)c(F)c([C@@]5(C)N=C(N)S[C@@]6(C(F)F)C[C@@H]56)c4)nccc3n2)o1` [Example 877, N-(3-((1S,5S,6S)-3-amino-1-(difluoromethyl)-5-methyl-2-thia-4-azabicyclo[4.1.0]hept-3-en-5-yl)-4,5-difluorophenyl)-2-((5-methyl-1,3,4-oxadiazol-2-yl)methoxy)pyrido[3,4-b]pyrazin-5-amine] are 11 nM, 0.338 µM, 0.0294 µM and 343 µM.
For `C#CCOc1cnc(C(=O)Nc2ccc(F)c([C@@]3(C)N=C(N)S[C@@]4(C(F)F)C[C@@H]34)c2)cn1` [Example 820, N-(3-((1S,5S,6S)-3-amino-1-(difluoromethyl)-5-methyl-2-thia-4-azabicyclo[4.1.0]hept-3-en-5-yl)-4-fluorophenyl)-5-(2-propyn-1-yloxy)-2-pyrazinecarboxamide], in that order: 0.319 nM, 0.0162 µM, 0.000495 µM and 60.4 µM.
For `CN(C)C(=O)[C@]12C[C@H]1[C@@](C)(c1cc(NC(=O)c3cnc(OCC(F)(F)F)cn3)ccc1F)N=C(N)S2` [Example 1000, (1S,5S,6S)-3-amino-5-(2-fluoro-5-(5-(2,2,2-trifluoroethoxy)pyrazine-2-carboxamido)phenyl)-N,N,5-trimethyl-2-thia-4-azabicyclo[4.1.0]hept-3-ene-1-carboxamide], in that order: 0.07 nM, 0.00345 µM, 0.000921 µM and 1000 µM.
As to `COC[C@]12C[C@H]1[C@@](C)(c1cc(Nc3nccc4cc(OCc5nccs5)cnc34)cc(F)c1F)N=C(N)S2` [Example 737, N-(3-((1S,5S,6S)-3-amino-1-(methoxymethyl)-5-methyl-2-thia-4-azabicyclo[4.1.0]hept-3-en-5-yl)-4,5-difluorophenyl)-3-(1,3-thiazol-2-ylmethoxy)-1,7-naphthyridin-8-amine], the IC50 came to 32.5 nM in assay [1], 0.693 µM in assay [2], 0.274 µM in assay [3] and 1500 µM in assay [4] (read-out: IC50 IP (μM) CatD).
In the case of `N#Cc1cnc2c(Nc3ccc(F)c([C@@]4(CF)N=C(N)S[C@@]5(CO)C[C@H]54)c3)ncnc2c1` [Example 80, 4-((3-((1S,5S,6S)-3-amino-5-(fluoromethyl)-1-(hydroxymethyl)-2-thia-4-azabicyclo[4.1.0]hept-3-en-5-yl)-4-fluorophenyl)amino)pyrido[3,2-d]pyrimidine-7-carbonitrile], the half-inhibitory concentration (IC50) in assay [1] (BACE1 FRET enzyme assay) was 9.13 nM; in assay [2] (BACE2 FRET enzyme assay), 0.0251 µM; in assay [3] (BACE1 cell-based assay), 0.00851 µM; in assay [4] (setting [5]), over 400 µM.
Take `CC(C)NC(=O)c1cnc2c(Nc3cnc(F)c([C@@]4(C)N=C(N)S[C@@]5(C(F)F)C[C@@H]45)c3)nccc2c1` [Example 656, 8-((5-((1S,5S,6S)-3-amino-1-(difluoromethyl)-5-methyl-2-thia-4-azabicyclo[4.1.0]hept-3-en-5-yl)-6-fluoro-3-pyridinyl)amino)-N-(1-methylethyl)-1,7-naphthyridine-3-carboxamide]: the IC50 in assay [1] worked out at 387 nM; in assay [2], 2.35 µM; in assay [3] it was 0.624 µM; in assay [4] (read-out: IC50 IP (μM) CatD), 998 µM.
For the compound `C[C@]1(c2cc(NC(=O)c3ccc(OCC(F)(F)C(F)F)cn3)cnc2F)N=C(N)S[C@@]2(CF)C[C@H]21` [Example 609, N-(5-((1S,5S,6S)-3-amino-1-(fluoromethyl)-5-methyl-2-thia-4-azabicyclo[4.1.0]hept-3-en-5-yl)-6-fluoro-3-pyridinyl)-5-(2,2,3,3-tetrafluoropropoxy)-2-pyridinecarboxamide], the IC50 in assay [1] is 3.44 nM; in assay [2], 0.466 µM; in assay [3], 0.0194 µM; in assay [4] (read-out: IC50 IP (μM) CatD) it was over 400 µM.
Take `COC[C@]12C[C@H]1[C@@](CF)(c1cc(NC(=O)c3ccc(Cl)cn3)cc(F)c1F)N=C(N)S2` [Example 43, N-(3-((1S,5S,6S)-3-amino-5-(fluoromethyl)-1-(methoxymethyl)-2-thia-4-azabicyclo[4.1.0]hept-3-en-5-yl)-4,5-difluorophenyl)-5-chloro-2-pyridinecarboxamide]: the IC50 in assay [1] (BACE1 FRET enzyme assay) was 2.35 nM; in assay [2] (BACE2 FRET enzyme assay), 0.00163 µM; in assay [3] (BACE1 cell-based assay) it was 0.00995 µM; in assay [4] (setting [5]) it was 755 µM; in assay [4] (first procedure (FRET), read-out: Cat D IC50), over 400 µM.
For `C#CCOc1cnc(C(=O)Nc2cnc(F)c([C@@]3(C)N=C(N)S[C@@]4(CF)C[C@H]43)c2)cn1` [Example 606, N-(5-((1S,5S,6S)-3-amino-1-(fluoromethyl)-5-methyl-2-thia-4-azabicyclo[4.1.0]hept-3-en-5-yl)-6-fluoropyridin-3-yl)-5-(prop-2-yn-1-yloxy)pyrazine-2-carboxamide], the IC50 in assay [1] was 0.32 nM; in assay [2] it was 0.00931 µM; in assay [3], 0.000849 µM; in assay [4] (read-out: IC50 IP (μM) CatD) it was 278 µM.
